Laboratory results from patent US7135466B2 (Kirin Beer Kabushiki Kaisha, priority 1999, dated 2006).

What was measured:
c-kit = molecular target: T1, c-kit (Homo sapiens, UniProt P10721); experiment: Inhibitory activity against c-kit autophosphorylation (MO7e cells, h-SCF); assay type: cell-based; settings: for IC50: MO7e cells, 50 ng/ml h-SCF, read-out: c-kit IC50; for inhibition at 1 µM: Mo7e, figure within parentheses in −( ) or >1000( ), at 1000 nM
T1 construct: MO7e (human megakaryocytic leukemia cell line) which had been arrested for 20 hr; endogenous in cells; host or cells: MO7e human megakaryocytic leukemia cell line
Procedure, shortened: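 In this cellular autophosphorylation assay, compound-treated MO7e cells (1 hr) were challenged with human stem cell factor at 50 ng/ml for 5 min; detection relied on PY-20 capture and anti-c-kit/HRP immunodetection at 450 nm.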

PDGF-Ra = molecular target: T2, PDGF-Ra (Homo sapiens, UniProt P16234); experiment: Inhibitory activity against PDGF-Ra phosphorylation by PDGF-AA stimulation using G292; assay type: cell-based; settings: for IC50: > means inhibition at indicated concentration not more than 50%, < and << not less than 50%, read-out: PDGF (E) IC50; for inhibition at 0.1 µM: G292, figure within parentheses in >100( ), at 100 nM, read-out: PDGF (E) inhibition (%) at 100 nM
T2 construct: host or cells: G-292 human osteosarcoma cells
Procedure, shortened: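 Phospho-PDGF-Ra ELISA: capture with PY-20 antiphosphotyrosine, detection with anti-PDGF-Ra and peroxidase secondary, read at 450 nm. Lysates came from G-292 osteosarcoma cells starved in 0.1% FBS, compound-treated 1 hr at 37° C, and stimulated with 50 ng/ml PDGF-AA for 5 min.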

T2 sequence (P16234 24-1089): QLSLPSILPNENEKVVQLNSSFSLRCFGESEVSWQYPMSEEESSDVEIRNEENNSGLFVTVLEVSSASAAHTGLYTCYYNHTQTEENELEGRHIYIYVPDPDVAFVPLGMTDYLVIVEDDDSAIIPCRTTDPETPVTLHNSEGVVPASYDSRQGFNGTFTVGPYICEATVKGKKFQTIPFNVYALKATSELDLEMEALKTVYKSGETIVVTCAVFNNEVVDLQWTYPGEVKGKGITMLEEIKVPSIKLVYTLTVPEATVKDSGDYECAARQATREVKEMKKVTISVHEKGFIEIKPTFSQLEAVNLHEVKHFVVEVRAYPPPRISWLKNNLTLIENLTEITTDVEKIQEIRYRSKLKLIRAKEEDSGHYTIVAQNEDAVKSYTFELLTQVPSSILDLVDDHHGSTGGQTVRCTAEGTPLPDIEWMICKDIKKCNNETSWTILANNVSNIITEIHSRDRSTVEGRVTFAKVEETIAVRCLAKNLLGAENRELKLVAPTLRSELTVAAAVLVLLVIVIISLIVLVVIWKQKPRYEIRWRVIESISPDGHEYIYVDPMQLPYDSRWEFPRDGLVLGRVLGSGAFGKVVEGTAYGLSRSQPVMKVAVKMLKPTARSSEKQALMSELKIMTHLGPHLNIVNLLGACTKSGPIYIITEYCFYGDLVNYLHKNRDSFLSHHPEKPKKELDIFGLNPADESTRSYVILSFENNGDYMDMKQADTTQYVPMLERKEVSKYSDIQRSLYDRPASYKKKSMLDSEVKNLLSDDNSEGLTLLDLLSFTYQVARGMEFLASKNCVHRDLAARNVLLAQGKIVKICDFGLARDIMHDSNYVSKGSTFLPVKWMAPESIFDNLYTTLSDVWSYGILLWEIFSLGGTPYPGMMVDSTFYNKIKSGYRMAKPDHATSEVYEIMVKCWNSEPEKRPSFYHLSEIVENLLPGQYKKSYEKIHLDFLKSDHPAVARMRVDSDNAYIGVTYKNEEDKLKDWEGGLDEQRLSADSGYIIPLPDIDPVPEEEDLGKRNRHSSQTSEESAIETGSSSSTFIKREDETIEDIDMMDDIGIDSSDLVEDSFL
T1 sequence (P10721 26-976): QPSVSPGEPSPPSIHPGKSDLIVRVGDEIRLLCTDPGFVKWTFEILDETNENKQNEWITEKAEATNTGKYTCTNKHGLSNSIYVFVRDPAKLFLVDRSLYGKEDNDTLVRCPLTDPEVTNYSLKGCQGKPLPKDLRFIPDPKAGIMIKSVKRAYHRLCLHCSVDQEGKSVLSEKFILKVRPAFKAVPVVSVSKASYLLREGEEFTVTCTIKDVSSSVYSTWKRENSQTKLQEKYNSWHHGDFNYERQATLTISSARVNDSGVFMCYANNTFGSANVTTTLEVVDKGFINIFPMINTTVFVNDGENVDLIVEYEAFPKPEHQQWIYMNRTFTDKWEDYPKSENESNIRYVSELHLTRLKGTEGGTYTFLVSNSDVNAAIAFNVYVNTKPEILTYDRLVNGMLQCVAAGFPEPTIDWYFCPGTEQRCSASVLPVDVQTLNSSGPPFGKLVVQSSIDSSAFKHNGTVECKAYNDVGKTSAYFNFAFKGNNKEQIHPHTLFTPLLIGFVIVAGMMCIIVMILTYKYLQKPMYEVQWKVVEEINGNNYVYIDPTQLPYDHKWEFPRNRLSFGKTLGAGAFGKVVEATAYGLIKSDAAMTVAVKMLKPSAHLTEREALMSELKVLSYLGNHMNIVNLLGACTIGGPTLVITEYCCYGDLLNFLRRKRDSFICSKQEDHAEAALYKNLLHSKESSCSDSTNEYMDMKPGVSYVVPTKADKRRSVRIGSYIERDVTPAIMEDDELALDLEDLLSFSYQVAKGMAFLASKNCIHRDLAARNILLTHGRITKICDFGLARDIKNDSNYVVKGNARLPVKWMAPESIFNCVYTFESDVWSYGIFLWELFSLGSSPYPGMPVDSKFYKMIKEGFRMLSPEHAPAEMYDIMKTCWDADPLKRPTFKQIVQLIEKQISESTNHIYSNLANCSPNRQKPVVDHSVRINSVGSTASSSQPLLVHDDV

IC50 (c-kit) [nM]	IC50 (PDGF-Ra) [nM]	inhibition at 1 µM (c-kit) [%]	inhibition at 0.1 µM (PDGF-Ra) [%]	Compound
115	43	–	–	COc1cc2ncnc(Oc3ccc(NC(=O)NCCN4CCOCC4)c([N+](=O)[O-])c3)c2cc1OC [Example 652, N-{4-[(6,7-Dimethoxy-4-quinazolinyl)oxy]-2-nitrophenyl}-N′-(2-morpholinoethyl)urea]
581	23	–	–	COc1cc2ncnc(Oc3ccc(NC(=O)NCCN4CCCC4)c([N+](=O)[O-])c3)c2cc1OC [Example 653, N-{4-[(6,7-Dimethoxy-4-quinazolinyl)oxy]-2-nitrophenyl}-N′-(2-tetrahydro-1H-1-pyrrolylethyl)urea]
698	19	–	–	COc1cc2nccc(Oc3ccc(NC(=O)NCCN(C(C)C)C(C)C)cc3)c2cc1OC [Example 654, N-[2-(Diisopropylamino)ethyl]-N′-{4-[(6,7-dimethoxy-4-quinolyl)oxy]phenyl}urea]
–	43	43	–	COc1cc2nccc(Oc3ccc(NC(=O)NCCN(C(C)C)C(C)C)c(C)c3C)c2cc1OC [Example 655, N-[2-(Diisopropylamino)ethyl]-N′-{4-[(6,7-dimethoxy-4-quinolyl)oxy]-2,3-dimethylphenyl}urea]
–	19	32	–	COc1cc2ncnc(Oc3ccc(NC(=O)NCCN(C(C)C)C(C)C)cc3)c2cc1OC [Example 656, N-[2-(Diisopropylamino)ethyl]-N′-{4-[(6,7-dimethoxy-4-quinazolinyl)oxy]phenyl}urea]
–	40	27	–	COc1cc2ncnc(Oc3ccc(NC(=O)NCCN(C(C)C)C(C)C)c(Cl)c3)c2cc1OC [Example 657, N-{2-Chloro-4-[(6,7-dimethoxy-4-quinazolinyl)oxy]phenyl}-N′-[2-(diisopropylamino)ethyl]urea]
389	19	–	–	COc1cc2nccc(Oc3ccc(NC(=O)NCCN(C(C)C)C(C)C)c([N+](=O)[O-])c3)c2cc1OC [Example 658, N-[2-(Diisopropylamino)ethyl]-N′-{4-[(6,7-dimethoxy-4-quinolyl)oxy]-2-nitrophenyl}urea]
835	25	–	–	COc1cc(Oc2ncnc3cc(OC)c(OC)cc23)ccc1NC(=O)NCCN(C(C)C)C(C)C [Example 660, N-[2-(Diisopropylamino)ethyl]-N′-{4-[(6,7-dimethoxy-4-quinazolinyl)oxy]-2-methoxyphenyl}urea]
75	< 10	–	–	CCN(CCNC(=O)Nc1ccc(Oc2ccnc3cc(OC)c(OC)cc23)cc1)c1cccc(C)c1 [Example 661, N-{4-[(6,7-Dimethoxy-4-quinolyl)oxy]phenyl}-N′-[2-(ethyl-3-methylanilino)ethyl]urea]
296	23	–	–	CCN(CCNC(=O)Nc1cc(C)c(Oc2ccnc3cc(OC)c(OC)cc23)cc1C)c1cccc(C)c1 [Example 662, N-{4-[(6,7-Dimethoxy-4-quinolyl)oxy]-2,5-dimethylphenyl}-N′-[2-(ethyl-3-methylanilino)ethyl]urea]
202	< 10	–	–	CCN(CCNC(=O)Nc1ccc(Oc2ccnc3cc(OC)c(OC)cc23)c(C)c1C)c1cccc(C)c1 [Example 663, N-{4-[(6,7-Dimethoxy-4-quinolyl)oxy]-2,3-dimethylphenyl}-N′-[2-(ethyl-3-methylanilino)ethyl]urea]
97	< 10	–	–	CCN(CCNC(=O)Nc1ccc(Oc2ncnc3cc(OC)c(OC)cc23)cc1)c1cccc(C)c1 [Example 664, N-{4-[(6,7-Dimethoxy-4-quinazolinyl)oxy]phenyl}-N′-[2-(ethyl-3-methylanilino)ethyl]urea]
122	11	–	–	CCN(CCNC(=O)Nc1ccc(Oc2ncnc3cc(OC)c(OC)cc23)cc1Cl)c1cccc(C)c1 [Example 665, N-{2-Chloro-4-[(6,7-dimethoxy-4-quinazolinyl)oxy]phenyl}-N′-[2-(ethyl-3-methylanilino)ethyl]urea]
134	10	–	–	CCN(CCNC(=O)Nc1ccc(Oc2ccnc3cc(OC)c(OC)cc23)cc1[N+](=O)[O-])c1cccc(C)c1 [Example 666, N-{4-[(6,7-Dimethoxy-4-quinolyl)oxy]-2-nitrophenyl}-N′-[2-(ethyl-3-methylanilino)ethyl]urea]
100	< 10	–	–	CCN(CCNC(=O)Nc1ccc(Oc2ncnc3cc(OC)c(OC)cc23)cc1[N+](=O)[O-])c1cccc(C)c1 [Example 667, N-{4-[(6,7-Dimethoxy-4-quinazolinyl)oxy]-2-nitrophenyl}-N′-[2-(ethyl-3-methylanilino)ethyl]urea]
144	< 10	–	–	CCN(CCNC(=O)Nc1ccc(Oc2ncnc3cc(OC)c(OC)cc23)cc1OC)c1cccc(C)c1 [Example 668, N-{4-[(6,7-Dimethoxy-4-quinazolinyl)oxy]-2-methoxyphenyl}-N′-[2-(ethyl-3-methylanilino)ethyl]urea]

IC50 (c-kit) [nM]	IC50 (PDGF-Ra) [nM]	inhibition at 1 µM (c-kit) [%]	inhibition at 0.1 µM (PDGF-Ra) [%]	Compound
134	23	–	–	CCN(CCNC(=O)Nc1ccc(Oc2ccnc3cc(OC)c(OC)cc23)cc1Cl)c1cccc(C)c1 [Example 669, N-{2-Chloro-4-[(6,7-dimethoxy-4-quinolyl)oxy]phenyl}-N′-[2-(ethyl-3-methylanilino)ethyl]urea]
82	15	–	–	CCN(CCNC(=O)Nc1ccc(Oc2ccnc3cc(OC)c(OC)cc23)cc1OC)c1cccc(C)c1 [Example 670, N-{4-[(6,7-Dimethoxy-4-quinolyl)oxy]-2-methoxyphenyl}-N′-[2-(ethyl-3-methylanilino)ethyl]urea]
–	64	22	–	COc1cc2nccc(Oc3cc(C)c(NC(=O)NCCN(C(C)C)C(C)C)cc3C)c2cc1OC [Example 671, N-[2-(Diisopropylamino)ethyl]-N′-{4-[(6,7-dimethoxy-4-quinolyl)oxy]-2,5-dimethylphenyl}urea]
–	53	9	–	COc1cc(Oc2ccnc3cc(OC)c(OC)cc23)ccc1NC(=O)NCCN(C(C)C)C(C)C [Example 672, N-[2-(Diisopropylamino)ethyl]-N′-{4-[(6,7-dimethoxy-4-quinolyl)oxy]-2-methoxyphenyl}urea]
426	15	–	–	COc1cc2nccc(Oc3ccc(NC(=O)NCCN4CCCCC4)cc3)c2cc1OC [Example 673, N-{4-[(6,7-Dimethoxy-4-quinolyl)oxy]phenyl}-N′-(2-piperidinoethyl)urea]
854	> 100	–	43	COc1cc2nccc(Oc3cc(C)c(NC(=O)NCCN4CCCCC4)cc3C)c2cc1OC [Example 674, N-{4-[(6,7-Dimethoxy-4-quinolyl)oxy]-2,5-dimethylphenyl}-N′-(2-piperidinoethyl)urea]
442	46	–	–	COc1cc2nccc(Oc3ccc(NC(=O)NCCN4CCCCC4)c(C)c3C)c2cc1OC [Example 675, N-{4-[(6,7-Dimethoxy-4-quinolyl)oxy]-2,3-dimethylphenyl}-N′-(2-piperidinoethyl)urea]
632	26	–	–	COc1cc2ncnc(Oc3ccc(NC(=O)NCCN4CCCCC4)cc3)c2cc1OC [Example 676, N-{4-[(6,7-Dimethoxy-4-quinazolinyl)oxy]phenyl}-N′-(2-piperidinoethyl)urea]
730	47	–	–	COc1cc2ncnc(Oc3ccc(NC(=O)NCCN4CCCCC4)c(Cl)c3)c2cc1OC [Example 677, N-{2-Chloro-4-[(6,7-dimethoxy-4-quinazolinyl)oxy]phenyl}-N′-(2-piperidinoethyl)urea]
164	< 10	–	–	COc1cc2nccc(Oc3ccc(NC(=O)NCCN4CCCCC4)c([N+](=O)[O-])c3)c2cc1OC [Example 678, N-{4-[(6,7-Dimethoxy-4-quinolyl)oxy]-2-nitrophenyl}-N′-(2-piperidinoethyl)urea]
570	35	–	–	COc1cc(Oc2ncnc3cc(OC)c(OC)cc23)ccc1NC(=O)NCCN1CCCCC1 [Example 680, N-{4-[(6,7-Dimethoxy-4-quinazolinyl)oxy]-2-methoxyphenyl}-N′-(2-piperidinoethyl)urea]
–	> 100	32	30	CCCCN(CCCC)CCNC(=O)Nc1ccc(Oc2ccnc3cc(OC)c(OC)cc23)cc1 [Example 682, N-[2-(Dibutylamino)ethyl]-N′-{4-[(6,7-dimethoxy-4-quinolyl)oxy]phenyl}urea]
–	> 100	26	40	CCCCN(CCCC)CCNC(=O)Nc1cc(C)c(Oc2ccnc3cc(OC)c(OC)cc23)cc1C [Example 683, N-[2-(Dibutylamino)ethyl]-N′-{4-[(6,7-dimethoxy-4-quinolyl)oxy]-2,5-dimethylphenyl}urea]
549	52	–	–	CCCCN(CCCC)CCNC(=O)Nc1ccc(Oc2ccnc3cc(OC)c(OC)cc23)c(C)c1C [Example 684, N-[2-(Dibutylamino)ethyl]-N′-{4-[(6,7-dimethoxy-4-quinolyl)oxy]-2,3-dimethylphenyl}urea]
–	22	41	–	CCCCN(CCCC)CCNC(=O)Nc1ccc(Oc2ncnc3cc(OC)c(OC)cc23)cc1 [Example 685, N-[2-(Dibutylamino)ethyl]-N′-{4-[(6,7-dimethoxy-4-quinazolinyl)oxy]phenyl}urea]
–	38	19	–	CCCCN(CCCC)CCNC(=O)Nc1ccc(Oc2ncnc3cc(OC)c(OC)cc23)cc1Cl [Example 686, N-{2-Chloro-4-[(6,7-dimethoxy-4-quinazolinyl)oxy]phenyl}-N′-[2-(dibutylamino)ethyl]urea]
